Assay results published in patent US7928141B2 (priority 2005, dated 2011).

Columns and labels:
Format in all cases: in vivo, human
Conditions in all cases: using only lidocaine
[1] = Anesthetic trial in general liposuction operations
Description: The above components were dissolved in a small amount (<1 mL) of distilled water and mixed homogeneously, and the mix was then diluted to 150 mL to yield the L.S.Z. solution.
50 bottles were filled each with 500 mL normal saline solution. […] The bottles were shaken respectively to mix well, yielding L.S.Z. anesthetic solution having a long duration of action.
Then, a common syringe with a 25 cm long needle was used to inject subcutaneously the above anesthetic solution in 45 sites of a […], 1.70 m in height, and 90 kg in weight. While injecting the anesthetic solution, liposuction was conducted using a liposuction tube, finally removing 18 L aspirated fat solution in total. The operation lasted for about 9 hours and the weight of the subject was reduced by 15 kg in total.

[2] = Anesthetic trial in large area operations: liposuction in the lower limb (buttock, thigh, calf)
Description: The above components were dissolved in a small amount (<1 mL) of distilled water and mixed homogeneously, and the mix was then diluted to 60 mL to yield the L.S.Z. solution.
20 bottles were filled each with 500 mL normal saline solution. To each bottle was added 15 mL of 2% lidocaine solution (as described in Example 1) and 3 mL of the L.S.Z. solution as prepared in this Example. The bottles were shaken respectively to mix well, yielding L.S.Z. anesthetic solution having a long duration of action.
[…] While injecting the anesthetic solution, liposuction was conducted using a liposuction tube, finally removing 6 L aspirated fat solution in total. The operation lasted for about 3 hours. When injecting, 8 injection points, the subcutaneous depth of 1-2 cm, and the radiation injection method around the injection point were chosen to form 8 anesthetic zones with a radius of 20 cm. After injection, the onset time shortened from the original about 1 min (using only lidocaine) down to around 5 sec, and the duration of analgesia prolonged from the original 4 hours (using only lidocaine) to about 9 days.

[3] = Anesthetic trial in middle area operations: liposuction in the abdomen
Description: The above components were dissolved in a small amount (<1 mL) of distilled water and mixed homogeneously, and the mixture was then diluted to 10 mL to yield the L.S.Z. solution.
10 bottles were filled each with 500 mL of normal saline solution. To each bottle was added 10 ml 2% lidocaine solution (as described in Example 1), and 1 mL of the L.S.Z. solution. The bottles were shaken respectively to mix well, yielding L.S.Z. anesthetic solution having a long duration of action.
[…] While injecting the anesthetic solution, liposuction was conducted using a liposuction tube, finally removing 3500 mL aspirated fat solution in total. The operation lasted 1 hour. When injecting, 3 injection points, the subcutaneous depth of 1-2 cm, and radiation injection around the injection point were chosen to form 3 anesthetic zones with a radius of 15 cm. After injection, the onset time shortened from the original about 1 min (using only lidocaine) down to about 5 sec, and the duration of analgesia prolonged from the original 4 hours (using only lidocaine) to about 9 days.

## CCN(CC)CC(=O)Nc1c(C)cccc1C [lidocaine]
[1]
  duration of analgesia: 4 h
  onset time: about 1 min
[2]
  duration of analgesia: 4 h
  onset time: about 1 min
[3]
  duration of analgesia: 4 h
  onset time: about 1 min
